Assay results from patent US9738628B2, “Substituted 1H-indazol-1-OL analogs as inhibitors of beta catenin/Tcf protein-protein interactions” (University of Utah Research Foundation, priority 2012, dated 2017).

Key:
[1] = test system: HCT116 colon cancer cell line; assay: MTS-based cell proliferation inhibition assay; parameters: species or system human; conditions: dose-dependent (FIG. 2)
β-catenin/Tcf4 = β-catenin/Tcf4 (Homo sapiens (Human), UniProt P35222); assay: Fluorescence polarization (FP) competitive inhibition assay, β-catenin/Tcf4; type: binding; conditions: Table 2, mean ± SD (n=3)
Procedure: Experiments were performed in 96-well Microfluor 2 black plates (Waltham, Mass.), and the samples were read by a Synergy 2 plate reader (Biotek, Winooski, Vt.). […] The final reaction volume is 100 μL.

Sequence of β-catenin/Tcf4 (P35222 138-686): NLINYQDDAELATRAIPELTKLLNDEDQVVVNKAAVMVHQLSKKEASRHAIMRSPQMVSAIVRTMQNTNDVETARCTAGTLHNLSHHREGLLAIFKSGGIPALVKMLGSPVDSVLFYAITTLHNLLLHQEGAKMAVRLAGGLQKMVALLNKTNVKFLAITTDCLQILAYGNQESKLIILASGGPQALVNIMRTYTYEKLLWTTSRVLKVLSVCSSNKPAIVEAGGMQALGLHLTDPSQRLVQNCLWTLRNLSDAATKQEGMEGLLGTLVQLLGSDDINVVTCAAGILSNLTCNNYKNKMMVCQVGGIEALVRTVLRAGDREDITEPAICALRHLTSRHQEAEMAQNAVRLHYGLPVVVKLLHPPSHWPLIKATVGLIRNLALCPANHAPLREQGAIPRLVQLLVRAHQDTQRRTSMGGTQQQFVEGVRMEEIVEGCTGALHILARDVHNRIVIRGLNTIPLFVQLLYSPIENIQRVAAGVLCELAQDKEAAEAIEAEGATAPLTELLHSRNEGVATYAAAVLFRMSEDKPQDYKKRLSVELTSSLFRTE

| Ki (β-catenin/Tcf4) | Substance | inhibition of growth of colon cancer cell HCT116 [1] |
| --- | --- | --- |
| – | 3-(2-(1-hydroxy-1H-indazol-5-yl)ethyl)-1,2,4-oxadiazole-5(4H)-thione [Compound 14] | inhibit the proliferation |
| 125 ± 1.3 µM | 3-((1-hydroxy-1H-indazol-5-yl)methyl)-1,2,4-oxadiazol-5(4H)-one [Compound 10] | – |
| – | 5-(2-(2H-tetrazol-5-yl)ethyl)-1H-indazol-1-ol [Compound 12] | inhibit the proliferation |
